Reference: patent US20260256792A1, “TREATMENT OF CHRONIC SPONTANEOUS URTICARIA BY ADMINISTERING (R)-2-[3-[4-AMINO-3-(2-FLUORO-4-PHENOXY-PHENYL)PYRAZOLO[3,4-D]PYRIMIDIN-1-YL]PIPERIDINE-1-CARBONYL]-4-METHYL-4-[4-(OXETAN-3-YL)PIPERAZIN-1-YL]PENT-2-ENENITRILE” (priority 2023, published 2026)

Test system: moderate-to-severe chronic spontaneous urticaria (CSU)
Assay: Phase 2 CSU study: urticaria activity score over 7 days (UAS7)
Assay type: in vivo, human
Design: key to UAS7 Median / UAS7 Change from baseline Median / UAS7 change from baseline, Q1 / UAS7 change from baseline, Q3 / UAS7 change from baseline, Max / UAS7 Change from baseline LS Mean (SE): UAS7 points; daily UAS score ranges 0–6 points/day, over 7 days
Conditions: for UAS7 Change from baseline LS Mean (SE) / UAS7 Post-baseline Mean (SD) / UAS7 % Change difference for rilzabrutinib vs. placebo LS Mean (95% CI) / UAS7 % Change from baseline LS Mean (SE) / UAS7 Change difference for rilzabrutinib vs. placebo LS Mean (95% CI): ITT population, 400 mg TID; for Imputed non-responder n (%), UAS7 = 0 / Imputed non-responder n (%), UAS7 ≤6 / Non-responder n (%), UAS7 = 0 / Non-responder n (%), UAS7 ≤6 / OR for rilzabrutinib vs. placebo, UAS7 = 0 / OR for rilzabrutinib vs. placebo, UAS7 ≤6 / RRD (%) for rilzabrutinib vs. placebo, UAS7 = 0 / RRD (%) for rilzabrutinib vs. placebo, UAS7 ≤6 / Responder n (%), UAS7 = 0 / Responder n (%), UAS7 ≤6: ITT, 400 mg BID
Description: The study comprises a 12 week, randomized, double-blind, placebo-controlled, multi-center, dose-ranging efficacy and safety phase, followed by a 40 week open label extension (OLE) phase (see FIG. 1). The study consists of three phases and an optional OLE phase. […] Clinically, CSU is characterized by the spontaneous and recurrent appearance of pruritic hives. The proposed primary endpoints were the UAS7 at Week 12 in EU and EU reference countries and the ISS7 in the US. Regardless of where a participant was from, all assessments were the same. The UAS7 score is a composite score containing both the HSS7 and the ISS7. This allowed a global assessment of the two key components of urticaria: hives and itch. […] The UAS is a validated PRO measure. […] The daily UAS scores range from 0 to 6 point/day. […] Patients were to complete the UAS using the e-diary. […] The following secondary endpoints were to be analyzed using the same approach as for the primary endpoint: • Change from baseline in UAS7 at Week 4 • Change from baseline in UAS7 at Week 12 (for US and US reference countries) • Change from baseline in ISS7 at Week 12 (except US and US reference countries) • Change from baseline in HSS7 at Week 12 The following responder secondary endpoints were to be analyzed using the Cochran-Mantel-Haenszel test adjusted by region: • Proportion of participants with UAS7<6 at Week 12 • Proportion of participants with UAS7=0 at Week 12 Participants who received selected prohibited medications and/or rescue medications were to be considered as non-responders for time points after the medication usage. For other participants, all available data including those collected during the off-treatment period were to be used to determine the responder/non-responder status. Missing data were to be considered as non-responders.

Question: For `CC(C)(C=C(C#N)C(=O)N1CCC[C@@H](n2nc(-c3ccc(Oc4ccccc4)cc3F)c3c(N)ncnc32)C1)N1CCN(C2COC2)CC1` [rilzabrutinib, (R)-2-[3-[4-amino-3-(2-fluoro-4-phenoxy-phenyl)pyrazolo[3,4-d]pyrimidin-1-yl]piperidine-1-carbonyl]-4-methyl-4-[4-(oxetan-3-yl)piperazin-1-yl]pent-2-enenitrile], which “UAS7 Change from baseline LS Mean (SE)” value (Week 5) is on record?
Answer: The value was −16.68.

Question: What about the “UAS7 Post-baseline Mean (SD)” value (Week 5) of the same molecule?
Answer: The value was 12.72 (10.63).

Question: What about the “UAS7 % Change difference for rilzabrutinib vs. placebo LS Mean (95% CI)” value (shortened to “UAS7 % Change difference … (95% CI)”) (Week 6) of the same molecule?
Answer: Its value is −27.22%.

Question: And the “UAS7 % Change from baseline LS Mean (SE)” value (Week 6)?
Answer: The value was −54.12%.

Question: And the “UAS7 Change difference for rilzabrutinib vs. placebo LS Mean (95% CI)” value (from here on “UAS7 Change difference … (95% CI)”) (Week 6)?
Answer: Its value is −7.54.

Question: And the “UAS7 Change from baseline LS Mean (SE)” value (Week 6)?
Answer: The value was −16.68.

Question: What about the “UAS7 Post-baseline Mean (SD)” value (Week 6) of the same molecule?
Answer: Its value is 12.95 (11.42).

Question: What about the “UAS7 % Change difference … (95% CI)” value (Week 7) of the same molecule?
Answer: The value was −25.60%.

Question: And the “UAS7 % Change from baseline LS Mean (SE)” value (Week 7)?
Answer: The value was −52.94%.

Question: And the “UAS7 Change difference … (95% CI)” value (Week 7)?
Answer: Its value is −7.30.

Question: What about the “UAS7 Change from baseline LS Mean (SE)” value (Week 7) of the same molecule?
Answer: Its value is −16.36.

Question: What about the “UAS7 Post-baseline Mean (SD)” value (Week 7) of the same molecule?
Answer: Its value is 13.31 (9.35).

Question: And the “UAS7 % Change difference … (95% CI)” value (Week 8)?
Answer: Its value is −22.78%.

Question: What about the “UAS7 % Change from baseline LS Mean (SE)” value (Week 8) of the same molecule?
Answer: The value was −54.62%.

Question: And the “UAS7 Change difference … (95% CI)” value (Week 8)?
Answer: The value was −6.17.

Question: And the “UAS7 Change from baseline LS Mean (SE)” value (Week 8)?
Answer: Its value is −16.52.

Question: And the “UAS7 Post-baseline Mean (SD)” value (Week 8)?
Answer: Its value is 12.33 (10.15).

Question: And the “UAS7 % Change difference … (95% CI)” value (Week 9)?
Answer: Its value is −26.48%.

Question: What about the “UAS7 % Change from baseline LS Mean (SE)” value (Week 9) of the same molecule?
Answer: Its value is −54.53%.

Question: What about the “UAS7 Change difference … (95% CI)” value (Week 9) of the same molecule?
Answer: Its value is −7.09.

Question: And the “UAS7 Change from baseline LS Mean (SE)” value (Week 9)?
Answer: Its value is −16.69.

Question: What about the “UAS7 Post-baseline Mean (SD)” value (Week 9) of the same molecule?
Answer: The value was 11.76 (9.95).

Question: And the “UAS7 % Change difference … (95% CI)” value (Week 10)?
Answer: Its value is −23.22%.

Question: What about the “UAS7 % Change from baseline LS Mean (SE)” value (Week 10) of the same molecule?
Answer: The value was −56.75%.

Question: What about the “UAS7 Change difference … (95% CI)” value (Week 10) of the same molecule?
Answer: Its value is −6.30.

Question: What about the “UAS7 Change from baseline LS Mean (SE)” value (Week 10) of the same molecule?
Answer: Its value is −17.20.

Question: What about the “UAS7 Post-baseline Mean (SD)” value (Week 10) of the same molecule?
Answer: The value was 11.82 (10.15).

Question: What about the “UAS7 % Change difference … (95% CI)” value (Week 11) of the same molecule?
Answer: The value was −25.03%.

Question: And the “UAS7 % Change from baseline LS Mean (SE)” value (Week 11)?
Answer: The value was −55.80%.

Question: What about the “UAS7 Change difference … (95% CI)” value (Week 11) of the same molecule?
Answer: The value was −6.74.

Question: What about the “UAS7 Change from baseline LS Mean (SE)” value (Week 11) of the same molecule?
Answer: Its value is −17.15.

Question: What about the “UAS7 Post-baseline Mean (SD)” value (Week 11) of the same molecule?
Answer: Its value is 12.17 (10.81).

Question: What about the “Imputed non-responder n (%), UAS7 = 0” value (Week 1) of the same molecule?
Answer: The value was 1 (2.4) n (%).

Question: And the “Imputed non-responder n (%), UAS7 ≤6” value (Week 1)?
Answer: The value was 1 (2.4) n (%).

Question: And the “Non-responder n (%), UAS7 = 0” value (Week 1)?
Answer: Its value is 38 (92.7) n (%).

Question: What about the “Non-responder n (%), UAS7 ≤6” value (Week 1) of the same molecule?
Answer: The value was 34 (82.9) n (%).

Question: What about the “OR for rilzabrutinib vs. placebo, UAS7 = 0” value (Week 1) of the same molecule?
Answer: The value was 3.132.

Question: And the “OR for rilzabrutinib vs. placebo, UAS7 ≤6” value (Week 1)?
Answer: The value was 3.469.

Question: And the “RRD (%) for rilzabrutinib vs. placebo, UAS7 = 0” value (shortened to “RRD (%) … UAS7 = 0”) (Week 1)?
Answer: The value was 4.7 %.

Question: And the “RRD (%) for rilzabrutinib vs. placebo, UAS7 ≤6” value (Week 1)?
Answer: Its value is 10.3 %.

Question: And the “Responder n (%), UAS7 = 0” value (Week 1)?
Answer: The value was 3 (7.3) n (%).

Question: And the “Responder n (%), UAS7 ≤6” value (Week 1)?
Answer: The value was 7 (17.1) n (%).

Question: What about the “Imputed non-responder n (%), UAS7 = 0” value (Week 2) of the same molecule?
Answer: Its value is 2 (4.9) n (%).

Question: And the “Imputed non-responder n (%), UAS7 ≤6” value (Week 2)?
Answer: Its value is 2 (4.9) n (%).

Question: And the “Non-responder n (%), UAS7 = 0” value (Week 2)?
Answer: Its value is 38 (92.7) n (%).

Question: What about the “Non-responder n (%), UAS7 ≤6” value (Week 2) of the same molecule?
Answer: Its value is 35 (85.4) n (%).

Question: What about the “OR for rilzabrutinib vs. placebo, UAS7 = 0” value (Week 2) of the same molecule?
Answer: The value was 2.893.

Question: What about the “OR for rilzabrutinib vs. placebo, UAS7 ≤6” value (Week 2) of the same molecule?
Answer: The value was 2.834.

Question: What about the “RRD (%) … UAS7 = 0” value (Week 2) of the same molecule?
Answer: Its value is 4.2 %.

Question: What about the “RRD (%) for rilzabrutinib vs. placebo, UAS7 ≤6” value (Week 2) of the same molecule?
Answer: The value was 7.7 %.

Question: And the “Responder n (%), UAS7 = 0” value (Week 2)?
Answer: The value was 3 (7.3) n (%).

Question: What about the “Responder n (%), UAS7 ≤6” value (Week 2) of the same molecule?
Answer: The value was 6 (14.6) n (%).

Question: What about the “Imputed non-responder n (%), UAS7 = 0” value (Week 3) of the same molecule?
Answer: Its value is 1 (2.4) n (%).

Question: And the “Imputed non-responder n (%), UAS7 ≤6” value (Week 3)?
Answer: The value was 1 (2.4) n (%).

Question: And the “Non-responder n (%), UAS7 = 0” value (Week 3)?
Answer: Its value is 37 (90.2) n (%).

Question: And the “Non-responder n (%), UAS7 ≤6” value (Week 3)?
Answer: Its value is 31 (75.6) n (%).

Question: And the “OR for rilzabrutinib vs. placebo, UAS7 = 0” value (Week 3)?
Answer: The value was 3.857.

Question: And the “OR for rilzabrutinib vs. placebo, UAS7 ≤6” value (Week 3)?
Answer: Its value is 2.554.

Question: And the “RRD (%) … UAS7 = 0” value (Week 3)?
Answer: The value was 6.3 %.

Question: What about the “Responder n (%), UAS7 = 0” value (Week 3) of the same molecule?
Answer: The value was 4 (9.8) n (%).

Question: And the “Responder n (%), UAS7 ≤6” value (Week 3)?
Answer: Its value is 10 (24.4) n (%).

Question: And the “Imputed non-responder n (%), UAS7 = 0” value (Week 4)?
Answer: Its value is 4 (9.8) n (%).

Question: What about the “Imputed non-responder n (%), UAS7 ≤6” value (Week 4) of the same molecule?
Answer: The value was 4 (9.8) n (%).

Question: What about the “Non-responder n (%), UAS7 = 0” value (Week 4) of the same molecule?
Answer: Its value is 38 (92.7) n (%).

Question: And the “Non-responder n (%), UAS7 ≤6” value (Week 4)?
Answer: The value was 28 (68.3) n (%).

Question: And the “OR for rilzabrutinib vs. placebo, UAS7 = 0” value (Week 4)?
Answer: Its value is 1.278.
